Read-outs that look alike come from different tables or passages of the source.
Tests used:
Test in all cases: Test D pre-/postemergence plant response
Assay type in all cases: in vivo
[1] = test system: Italian ryegrass (Lolium multiflorum); conditions: Lolium multiflorum, pre-emergence, Preemergence
Source text: (§1) Seeds of plant species selected from blackgrass (Alopecurus myosuroides), Italian ryegrass (Lolium multiflorum), winter wheat (Triticum aestivum), galium (catchweed bedstraw, Galium aparine), corn (Zea mays), large (Lg) crabgrass (Digitaria sanguinalis), giant foxtail (Setaria faberii), johnsongrass (Sorghum halepense), lambsquarters (Chenopodium album), morningglory (Ipomoea coccinea), yellow nutsedge (Cyperus esculentus), pigweed (Amaranthus retroflexus), ragweed (common ragweed, Ambrosia elatior), soybean (Glycine max), bamyardgrass (Echinochloa crus-galli), oilseed rape (Brassica napus), waterhemp (common waterhemp, Amaranthus rudis), and velvetleaf (Abutilon theophrasti) were planted into a blend of loam soil and sand and treated preemergence with test chemicals formulated in a non-phytotoxic solvent mixture which included a surfactant. At the same time, plants selected from these crop and weed species and also kochia (Kochia scoparia), wild oat (Avena fatua), and chickweed (common chickweed, Stellaria media) were planted in pots containing Redi-Earth® planting medium (Scotts Company, 14111 Scottslawn Road, Marysville, Ohio 43041) comprising spaghnum peat moss, vermiculite, wetting agent and starter nutrients and treated with postemergence applications of test chemicals formulated in the same manner. Plants ranged in height from 2 to 18 cm (1- to 4-leaf stage) for postemergence treatments. Treated plants and controls were maintained in a greenhouse for 13 to 15 days, after which time all species were compared to controls and visually evaluated. Plant response ratings, summarized in Table D, are based on a scale of 0 to 100 where 0 is no effect and 100 is complete control. A dash (-) response means no test result.

[2] = test system: yellow nutsedge (Cyperus esculentus); conditions: Cyperus; for pest or weed control at 31 g/ha: 31 g ai/ha; for pest or weed control at 62 g/ha: 62 g ai/ha; for pest or weed control at 125 g/ha: 125 g ai/ha; for pest or weed control at 250 g/ha: 250 g ai/ha
Source text: as §1

[3] = test system: johnsongrass (Sorghum halepense); conditions: Sorghum halepense; for pest or weed control at 31 g/ha: 31 g ai/ha; for pest or weed control at 62 g/ha: 62 g ai/ha; for pest or weed control at 125 g/ha: 125 g ai/ha; for pest or weed control at 250 g/ha: 250 g ai/ha
Source text: as §1

[4] = test system: pigweed (Amaranthus retroflexus); conditions: Amaranthus retroflexus; for pest or weed control at 31 g/ha: 31 g ai/ha; for pest or weed control at 62 g/ha: 62 g ai/ha; for pest or weed control at 125 g/ha: 125 g ai/ha; for pest or weed control at 250 g/ha: 250 g ai/ha
Source text: as §1

[5] = test system: velvetleaf (Abutilon theophrasti); conditions: Abutilon theophrasti; for pest or weed control at 31 g/ha: 31 g ai/ha; for pest or weed control at 62 g/ha: 62 g ai/ha; for pest or weed control at 125 g/ha: 125 g ai/ha; for pest or weed control at 250 g/ha: 250 g ai/ha
Source text: as §1

[6] = post-emergence, Postemergence, scale 0 to 100, 0 no effect, 100 complete control, read-out: Plant response rating, Nutsedge, Yellow
[7] = pre-emergence, Preemergence, read-out: Plant response rating (scale 0 to 100), Nutsedge, Yellow
[8] = pre-emergence, Preemergence, scale 0 to 100 (0 no effect, 100 complete control), read-out: Plant response rating, Nutsedge, Yellow
[9] = post-emergence, Postemergence, scale 0 to 100, 0 no effect, 100 complete control, read-out: Plant response rating, Johnsongrass
[10] = pre-emergence, Preemergence, read-out: Plant response rating (scale 0 to 100), Johnsongrass
[11] = pre-emergence, Preemergence, scale 0 to 100 (0 no effect, 100 complete control), read-out: Plant response rating, Johnsongrass
[12] = post-emergence, Postemergence, scale 0 to 100, 0 no effect, 100 complete control, read-out: Plant response rating, Pigweed
[13] = pre-emergence, Preemergence, read-out: Plant response rating (scale 0 to 100), Pigweed
[14] = pre-emergence, Preemergence, scale 0 to 100 (0 no effect, 100 complete control), read-out: Plant response rating, Pigweed
[15] = post-emergence, Postemergence, scale 0 to 100, 0 no effect, 100 complete control, read-out: Plant response rating, Velvetleaf
[16] = pre-emergence, Preemergence, read-out: Plant response rating (scale 0 to 100), Velvetleaf
[17] = pre-emergence, Preemergence, scale 0 to 100 (0 no effect, 100 complete control), read-out: Plant response rating, Velvetleaf

Work on `FC(F)c1cc(-c2ccccc2Oc2ncc(Br)cn2)no1` [Compound 62, 5-bromo-2-[2-[5-(difluoromethyl)-3-isoxazolyl]phenoxy]pyrimidine] yielded a pest or weed control at 125 g/ha ([1]; 125 g ai/ha, read-out: Plant response rating (scale 0 to 100), Ryegrass, Italian) of 90%, a pest or weed control at 250 g/ha ([1]; 250 g ai/ha, read-out: Plant response rating (scale 0 to 100), Ryegrass, Italian) of 95% and a pest or weed control at 31 g/ha ([1]; 31 g ai/ha, scale 0 to 100 (0 no effect, 100 complete control), read-out: Plant response rating, Ryegrass, Italian) of 40%. It also gave a pest or weed control at 62 g/ha ([1]; 62 g ai/ha, scale 0 to 100 (0 no effect, 100 complete control), read-out: Plant response rating, Ryegrass, Italian) of 60%, a pest or weed control at 31 g/ha ([2]; post-emergence, Postemergence, scale 0 to 100 (0 no effect, 100 complete control), read-out: Nutsedge, Yellow plant response rating) of 5% and a pest or weed control at 62 g/ha [2, 6] of 5%. It also gave a pest or weed control at 125 g/ha [2, 6] of 5%, a pest or weed control at 250 g/ha [2, 6] of 10% and a pest or weed control at 125 g/ha [2, 7] of 10%. It also gave a pest or weed control at 250 g/ha [2, 7] of 60%, a pest or weed control at 31 g/ha [2, 8] of 0% and a pest or weed control at 62 g/ha [2, 8] of 5%. It also gave a pest or weed control at 31 g/ha ([3]; post-emergence, Postemergence, scale 0 to 100 (0 no effect, 100 complete control), read-out: Johnsongrass plant response rating) of 25%, a pest or weed control at 62 g/ha [3, 9] of 25% and a pest or weed control at 125 g/ha [3, 9] of 75%. The pest or weed control at 250 g/ha [3, 9] was 85%, the pest or weed control at 125 g/ha [3, 10] was 90% and the pest or weed control at 250 g/ha [3, 10] was 98%. It also gave a pest or weed control at 31 g/ha [3, 11] of 30%, a pest or weed control at 62 g/ha [3, 11] of 75% and a pest or weed control at 31 g/ha ([4]; post-emergence, Postemergence, scale 0 to 100 (0 no effect, 100 complete control), read-out: Pigweed plant response rating) of 98%. The pest or weed control at 62 g/ha [4, 12] was 100%, the pest or weed control at 125 g/ha [4, 12] was 100% and the pest or weed control at 250 g/ha [4, 12] was 100%. The pest or weed control at 125 g/ha [4, 13] was 100%, the pest or weed control at 250 g/ha [4, 13] was 100% and the pest or weed control at 31 g/ha [4, 14] was 100%. The pest or weed control at 62 g/ha [4, 14] was 100%, the pest or weed control at 31 g/ha ([5]; post-emergence, Postemergence, scale 0 to 100 (0 no effect, 100 complete control), read-out: Velvetleaf plant response rating) was 60% and the pest or weed control at 62 g/ha [5, 15] was 70%. For the same compound, the pest or weed control at 125 g/ha [5, 15] was 75%, the pest or weed control at 250 g/ha [5, 15] was 85% and the pest or weed control at 125 g/ha [5, 16] was 100%. It also gave a pest or weed control at 250 g/ha [5, 16] of 100%, a pest or weed control at 31 g/ha [5, 17] of 90% and a pest or weed control at 62 g/ha [5, 17] of 100%.
